system: release of apoB-100-associated lipoproteins from liver cells (HepG2); experiment: Inhibition of the release of apoB-100-associated lipoproteins (HepG2 cells, immunoassay); format: cell-based; conditions: Homo sapiens; HepG2 culture supernatant, anti-LDL immunoassay, light absorption at 450 nm vs solvent control
Method: 1. Inhibition of the release of apoB-100-associated lipoproteins
The test for detection of the inhibition of the release of apoB-100-associated lipoproteins from liver cells was carried out in vitro with cultured liver cells, preferably with cells of the human line HepG2. These cells are cultured under standard conditions in a medium for the culture of eukaryotic cells, preferably in RPMI 1640 with 10% foetal calf serum. HepG2 cells synthesize and secrete into the culture supernatant apoB-100-associated lipoprotein particles, which in principle are similar in structure to the VLDL and LDL particles to be found in plasma.
These particles can be detected with an immunoassay for human LDL. This immunoassay is carried out with antibodies which had been induced in the rabbit against human LDL under standard conditions. The anti-LDL antibodies (rab-anti-LDL- ab) were purified by affinity chromatography on an immunosorbent with human LDL. These purified rab-anti-LDL-ab are adsorbed onto the surface of a plastic. This adsorption is expediently carried out onto the plastic surface of microtitre plates with 96 wells, preferably on MaxiSorp plates. If apoB-100-associated particles are present in the supernatant of Hep-G2 cells, these can bind to the insolubilized rab-anti-LDL-ab, and an immune complex bonded to the plastic surface is formed. Non-bound proteins are removed by washing. The immune complex on the plastic surface is detected with monoclonal antibodies which have been induced against human LDL and purified under standard conditions. These antibodies were conjugated with the enzyme peroxidase. Peroxidase converts the colourless substrate TMB into a coloured product in the presence of H2 O2. After acidification of the reaction mixture with H2 SO4, the specific adsorption of light at 450 nm is determined, this being a measure of the amount of apoB-100-associated particles which have been secreted into the culture supernatant by the HepG2 cells.
The IC50 value indicates the concentration of substance at which the adsorption of light is inhibited by 50% compared with the control (solvent control without substance).

Compound	IC50
Cc1cc(C)c2c3ccccc3n(Cc3ccc(C(N)C4CCCC4)cc3)c2n1 (racemic) [Example 1, 9-{4-[1-(R,S1-Amino-1-cyclopentyl-methyl]phenyl-methyl}-2,4-dimethyl-(α-carboline]	> 2000 nM
Cc1cc(C)c2c3ccccc3n(Cc3ccc(C(NC(=O)C(=NO)c4ccccc4)C4CCCC4)cc3)c2n1 (racemic) [Example 24, 9-{4-[1-(R,S)-1-(2-(E,Z)-2-hydroxyimino-2-phenyl-acetyl)amino-1-cyclopentyl-methyl]phenyl-methyl}-2,4-dimethyl-α-carboline]	300 nM
Cc1cc(C)c2c3ccccc3n(Cc3ccc(C(NS(=O)(=O)Cc4ccccc4)C4CCCC4)cc3)c2n1 (stereo not drawn) [Example 3]	460 nM

The next compounds have a lower IC50 than those just listed; values first:

IC50	Compound
39 nM	Cc1cc(C)c2c3ccccc3n(Cc3ccc(C(NC(=O)C(O)c4ccccc4)C4CCCC4)cc3)c2n1 (racemic) [Example 18, 9-{4-[1-(R,S)-1-(2-(R,S)-2-Phenyl-2-hydroxy-acetyl)amino-1-cyclopentyl-methyl]phenyl-methyl}-2,4-dimethyl-α-carboline]
34 nM	Cc1cc(C)c2c3ccccc3n(Cc3ccc(C(NC(=O)Cc4ccccc4)C4CCCC4)cc3)c2n1 (stereo not drawn) [Example 4]
38 nM	COc1ccc(CC(=O)NC(c2ccc(Cn3c4ccccc4c4c(C)cc(C)nc43)cc2)C2CCCC2)cc1 (stereo not drawn) [Example 5]

Source: patent US5849751A, “Amides and sulphonamides of benzylamines having heterocyclic substituents” (Bayer Aktiengesellschaft, priority 1995, dated 1998)
